In patent US20240042065A1, “THERANOSTIC AGENTS” (priority 2022, published 2024):

Assay: NMR relaxivity studies (R1 relaxivity)
Type: physicochemical
Details: Gd(III) complexes of DTPA analogues
Procedure: The potential of L1 and L2 to be used in magnetic resonance imaging/Optical Imaging (MRI/OI) was evaluated by measuring their (a) thermodynamic stability by stability constants with potentiometric titrations; (b) R1 relaxivities by NMR relaxivity studies and (c) spectrophotometric (luminescence) investigations.
The diagnostic moiety of the theranostic agent of the present invention enhances MR images when the patient is subjected to the magnetic field of the MR scanning machine by altering the T1 relaxation of local water protons. The paramagnetic relaxation of water protons arises as a result of dipole-dipole interactions between the proton nuclear spins and that of the oscillating magnetic field of MR machine caused by the interaction with the unpaired electron spins of paramagnetic metal ion in the complex, under pulse of radio frequency. The overall paramagnetic water proton relaxation rate enhancement (i.e. proton relaxivity) is governed by two factors, namely inner sphere and outer sphere contributions. […] This profile measures molecular dynamics taking place within the said complex understudy in a quantitative manner in the time scales of milliseconds to nanoseconds. […]

relaxivity (in words): high relaxivity
SMILES: O=C(O)CN(CCN(CCN(CC(=O)O)CC(=O)O)CCN1C(=O)c2cccc3cccc(c23)C1=O)CC(=O)O [Type A]
